Assay [1] has as its target T1, Jarid1A (Homo sapiens, UniProt P29375).
T1 construct: purchased BPS Bioscience 50110
T1 sequence (P29375 1-1090): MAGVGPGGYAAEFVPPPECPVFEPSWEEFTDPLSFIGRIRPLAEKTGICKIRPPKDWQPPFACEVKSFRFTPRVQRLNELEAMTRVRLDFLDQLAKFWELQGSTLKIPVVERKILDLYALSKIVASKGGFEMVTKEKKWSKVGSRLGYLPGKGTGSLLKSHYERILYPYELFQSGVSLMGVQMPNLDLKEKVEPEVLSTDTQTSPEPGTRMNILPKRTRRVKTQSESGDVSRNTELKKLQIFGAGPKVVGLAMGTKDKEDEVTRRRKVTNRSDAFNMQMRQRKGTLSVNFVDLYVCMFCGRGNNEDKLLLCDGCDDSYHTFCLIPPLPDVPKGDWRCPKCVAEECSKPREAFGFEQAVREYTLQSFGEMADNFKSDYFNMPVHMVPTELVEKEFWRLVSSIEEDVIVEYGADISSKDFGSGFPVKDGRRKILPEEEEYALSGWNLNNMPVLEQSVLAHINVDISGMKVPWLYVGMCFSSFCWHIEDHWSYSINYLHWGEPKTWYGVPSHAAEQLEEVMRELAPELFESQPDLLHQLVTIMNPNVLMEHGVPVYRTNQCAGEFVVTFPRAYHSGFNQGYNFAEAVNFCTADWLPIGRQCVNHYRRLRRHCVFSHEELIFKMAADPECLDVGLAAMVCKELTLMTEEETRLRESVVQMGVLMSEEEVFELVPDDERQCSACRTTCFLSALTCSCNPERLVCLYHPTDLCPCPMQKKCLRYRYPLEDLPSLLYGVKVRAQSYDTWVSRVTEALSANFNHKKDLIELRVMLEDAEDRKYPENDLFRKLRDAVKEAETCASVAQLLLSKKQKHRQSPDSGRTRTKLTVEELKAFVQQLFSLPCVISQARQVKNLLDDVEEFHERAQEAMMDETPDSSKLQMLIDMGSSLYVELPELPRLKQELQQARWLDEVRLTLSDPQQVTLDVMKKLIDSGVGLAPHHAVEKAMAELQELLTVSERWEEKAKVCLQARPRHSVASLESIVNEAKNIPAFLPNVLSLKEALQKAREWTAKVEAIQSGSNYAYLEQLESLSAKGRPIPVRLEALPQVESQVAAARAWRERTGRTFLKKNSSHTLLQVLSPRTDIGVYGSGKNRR
The assay is described as follows: Jarid1A in vitro enzyme inhibition assay (TR-FRET). The assay is classed as biochemical. In a few lines:
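Demethylation of 300 nM biotin-H3K4me3 peptide by 1 nM baculovirus-expressed Jarid1A (aa 1–1090) with 2 μM α-ketoglutarate, Fe(II) and ascorbate, pH 7.3, 30 min at room temperature. Stopped with EDTA; H3K4me1-2 product detected by TR-FRET (Eu anti-H3K4me1-2/streptavidin-APC). IC50 fitted from 665/615 ratio over 11-point dilutions.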

Assay [2] deals with KDM5A/B. The experiment in a line: In vitro cell-based assay: immuno-blot quantification of tri-methyl H3K4 in ZR-75-1 breast cancer cells. The following applies: 72 hours, tri-methyl H3K4 level relative to GAPDH, percent of DMSO, read-out: Cellular IC50. An outline of the steps:
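ZR-75-1 breast cancer cells treated 72 h with 11-point compound dilutions (1250 μM to 10 nM). H3K4me3 quantified by infrared immunoblot densitometry, normalized to GAPDH and expressed as percent of DMSO control; relative IC50 from curve fit.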

For `CC(C)Oc1nc(O)c2ccncc2n1` [Example 1, 2-propan-2-yloxy-3H-pyrido[3,4-d]pyrimidin-4-one], the IC50 in assay [1] fell in the range of 0.1 to 1 µM.
For `CCOc1nc(O)c2ccncc2n1` [Example 2, 2-ethoxypyrido[3,4-d]pyrimidin-4-ol], the figures for the IC50 in assay [1] and in assay [2] were not above 0.1 µM and more than 10 µM, respectively.
`Oc1nc(OCCOCC(F)(F)F)nc2cnccc12` [Example 23, 2-[2-(2,2,2-trifluoroethoxy)ethoxy]pyrido[3,4-d]pyrimidin-4-ol] came in with an IC50 in assay [1] of 0.1 to 1 µM.
`CC(C)(O)CCOc1nc(O)c2ccncc2n1` [Example 24, 2-(3-hydroxy-3-methylbutoxy)pyrido[3,4-d]pyrimidin-4-ol]: the IC50 in assay [1] is not above 0.1 µM; in assay [2] it was more than 10 µM.
On to `CC(CO)COc1nc(O)c2ccncc2n1` (stereo not drawn) [Example 25, 2-(3-hydroxy-2-methylpropoxy)pyrido[3,4-d]pyrimidin-4-ol], for which the IC50 in assay [1] lay in the range of 0.1 to 1 µM.
In assay [1], `Oc1nc(OCC2CCCO2)nc2cnccc12` (stereo not drawn) [Example 26, 2-(oxolan-2-ylmethoxy)pyrido[3,4-d]pyrimidin-4-ol] had an IC50 of 0.1 to 1 µM.
Consider `Oc1nc(OCC2CCOC2)nc2cnccc12` (stereo not drawn) [Example 27, 2-(oxolan-3-ylmethoxy)pyrido[3,4-d]pyrimidin-4-ol], for which the IC50 in assay [1] was in the range of 0.1 to 1 µM.
Still for that read-out and setting: for `CC(=O)N(C)CCOc1nc(O)c2ccncc2n1` [Example 28, N-[2-(4-hydroxypyrido[3,4-d]pyrimidin-2-yl)oxyethyl]-N-methylacetamide] the value was 0.1 to 1 µM; for `CC(C)OCCOc1nc(O)c2ccncc2n1` [Example 29, 2-(2-propan-2-yloxyethoxy)pyrido[3,4-d]pyrimidin-4-ol], 0.1 to 1 µM; for `Oc1nc(OCCOCc2ccccc2)nc2cnccc12` [Example 30, 2-(2-phenylmethoxyethoxy)pyrido[3,4-d]pyrimidin-4-ol], 0.1 to 1 µM.
On the same count and under the same terms, the same measure for `O=C(NCCOc1nc(O)c2ccncc2n1)c1ccccc1` [Example 31, N-[2-(4-hydroxypyrido[3,4-d]pyrimidin-2-yl)oxyethyl]benzamide]: not above 0.1 µM.
`N#Cc1cccc(COc2nc(O)c3ccncc3n2)c1` [Example 32, 3-[(4-hydroxypyrido[3,4-d]pyrimidin-2-yl)oxymethyl]benzonitrile]: the IC50 in assay [1] lay in the range of 0.1 to 1 µM.
The molecule `Cn1ccc(COc2nc(O)c3ccncc3n2)n1` [Example 33, 2-[(1-methylpyrazol-3-yl)methoxy]pyrido[3,4-d]pyrimidin-4-ol] registered a 50% inhibitory concentration (IC50) in assay [1] of 1 to 10 µM.
With `Oc1nc(Oc2ccccc2)nc2cnccc12` [Example 34, 2-phenoxypyrido[3,4-d]pyrimidin-4-ol], the figures for the IC50 in assay [1] and in assay [2] were not above 0.1 µM and more than 10 µM, respectively.
Consider `Oc1nc(OCc2ccccc2C(F)(F)F)nc2cnccc12` [Example 177, 2-{[2-(trifluoromethyl)phenyl]methoxy}pyrido[3,4-d]pyrimidin-4-ol], for which, in assay [1], the IC50 lay within 1 to 10 µM.
On the same count and under the same terms, the same measure for `Oc1nc(OCc2ccccc2F)nc2cnccc12` [Example 178, 2-[(2-fluorophenyl)methoxy]pyrido[3,4-d]pyrimidin-4-ol]: 1 to 10 µM.
With `Oc1nc(OCc2cccc(F)c2)nc2cnccc12` [Example 179, 2-[(3-fluorophenyl)methoxy]pyrido[3,4-d]pyrimidin-4-ol], in assay [1], the IC50 lay in the range of 1 to 10 µM.
Still for that read-out and setting: for `Oc1nc(OCc2ccc(F)cc2)nc2cnccc12` [Example 180, 2-[(4-fluorophenyl)methoxy]pyrido[3,4-d]pyrimidin-4-ol] the value was 1 to 10 µM; for `Oc1nc(OCc2cccc(F)c2F)nc2cnccc12` [Example 181, 2-[(2,3-difluorophenyl)methoxy]pyrido[3,4-d]pyrimidin-4-ol], 1 to 10 µM; for `Oc1nc(OCc2cc(F)ccc2F)nc2cnccc12` [Example 182, 2-[(2,5-difluorophenyl)methoxy]pyrido[3,4-d]pyrimidin-4-ol], 1 to 10 µM.
The molecule `Oc1nc(OCc2c(F)cccc2F)nc2cnccc12` [Example 183, 2-[(2,6-difluorophenyl)methoxy]pyrido[3,4-d]pyrimidin-4-ol] came in with an IC50 in assay [1] of 1 to 10 µM.
Regarding `Oc1nc(OCc2cccc3ccccc23)nc2cnccc12` [Example 184, 2-(naphthalen-1-ylmethoxy)pyrido[3,4-d]pyrimidin-4-ol], the IC50 in assay [1] is 1 to 10 µM.
`Oc1nc(OCc2ccccc2-c2ccccc2)nc2cnccc12` [Example 185, 2-[(2-phenylphenyl)methoxy]pyrido[3,4-d]pyrimidin-4-ol] had an IC50 in assay [1] of 1 to 10 µM.
Take `Oc1nc(OCc2cccc(-c3ccccc3)c2)nc2cnccc12` [Example 186, 2-[(3-phenylphenyl)methoxy]pyrido[3,4-d]pyrimidin-4-ol]: the concentration for half-maximal inhibition (IC50) in assay [1] fell in the range of 1 to 10 µM.
On to `Oc1nc(OCc2ccc3ccccc3c2)nc2cnccc12` [Example 187, 2-(naphthalen-2-ylmethoxy)pyrido[3,4-d]pyrimidin-4-ol], for which the half-maximal inhibitory concentration (IC50) in assay [1] lay in the range of 1 to 10 µM.
Same read-out and setting: for `Oc1nc(OCC2CCCc3ccccc32)nc2cnccc12` (stereo not drawn) [Example 188, 2-(1,2,3,4-tetrahydronaphthalen-1-ylmethoxy)pyrido[3,4-d]pyrimidin-4-ol] the value was 0.1 to 1 µM.
In assay [1], `Oc1nc(OC2Cc3ccccc3C2)nc2cnccc12` [Example 189, 2-(2,3-dihydro-1H-inden-2-yloxy)pyrido[3,4-d]pyrimidin-4-ol] returned an IC50 of 0.1 to 1 µM.
The same measure, in the same setting: the same measure for `Oc1nc(OCC2CCc3ccccc32)nc2cnccc12` (stereo not drawn) [Example 190, 2-(2,3-dihydro-1H-inden-1-ylmethoxy)pyrido[3,4-d]pyrimidin-4-ol]: 0.1 to 1 µM.
`Oc1nc(OCC2CCc3ccccc3C2)nc2cnccc12` (stereo not drawn) [Example 191, 2-(1,2,3,4-tetrahydronaphthalen-2-ylmethoxy)pyrido[3,4-d]pyrimidin-4-ol]: the IC50 in assay [1] lay in the range of 0.1 to 1 µM.
In assay [1], `Oc1nc(OC2CCc3ccccc32)nc2cnccc12` (stereo not drawn) [Example 192, 2-(2,3-dihydro-1H-inden-1-yloxy)pyrido[3,4-d]pyrimidin-4-ol] registered an IC50 of 1 to 10 µM.
On the same count and under the same terms, the same measure for `Oc1nc(OCc2coc3ccccc23)nc2cnccc12` [Example 193, 2-(1-benzofuran-3-ylmethoxy)pyrido[3,4-d]pyrimidin-4-ol]: 0.1 to 1 µM; for `Oc1nc(OCC2COc3ccccc32)nc2cnccc12` (stereo not drawn) [Example 194, 2-(2,3-dihydro-1-benzofuran-3-ylmethoxy)pyrido[3,4-d]pyrimidin-4-ol]: 1 to 10 µM.
The same measure, in the same setting: the same measure for `Oc1nc(OCC2CCOc3ccccc32)nc2cnccc12` (stereo not drawn) [Example 195, 2-(3,4-dihydro-2H-1-benzopyran-4-ylmethoxy)pyrido[3,4-d]pyrimidin-4-ol]: 0.1 to 1 µM; for `Oc1nc(OC2CCCc3ccccc32)nc2cnccc12` (stereo not drawn) [Example 196, 2-(1,2,3,4-tetrahydronaphthalen-1-yloxy)pyrido[3,4-d]pyrimidin-4-ol]: 1 to 10 µM; for `Oc1nc(OC2CCOc3ccccc32)nc2cnccc12` (stereo not drawn) [Example 197, 2-(3,4-dihydro-2H-1-benzopyran-4-yloxy)pyrido[3,4-d]pyrimidin-4-ol]: 0.1 to 1 µM.
As for `Cn1cnc(-c2nccc3c(=O)[nH]cnc23)c1` [Example 198, 8-(1-methylimidazol-4-yl)-3H-pyrido[3,4-d]pyrimidin-4-one], in assay [1], the IC50 is 0.1 to 1 µM.

The values above are taken from patent US10526327B2, “Histone demethylase inhibitors” (CELGENE QUANTICEL RESEARCH, INC., priority 2013, dated 2020).
